Results published in publication PMC9312238, “Novel Organoselenium Redox Modulators with Potential Anticancer, Antimicrobial, and Antioxidant Activities” (Antioxidants, 2022).
Like-named read-outs stand apart in the source and are kept apart here.

What was measured:
MCF-7 cells = assay: cells; assay type: cell-based, human; conditions: for MCF7 TI (IC50 WI-38 / IC50 MCF-7): therapeutic index, ratio of WI-38 IC50 to MCF-7 IC50; for IC50: Homo sapiens
Method: (§1) Cells were obtained from the ATCC Company (VACSERA), Cairo, Egypt. MTT assay were performed according to the literature method. More details are in the Supporting Information.
(§2) Recently, OSe compounds gained much attention as possible drug candidates due to their various pharmacological properties. […] Therefore, the anticancer attributes of the newly prepared OSe compounds were estimated using the MTT assay against MCF-7 and HepG2 and compared with their respective cytotoxicity in WI-38 primary cells. The anthracycline drug doxorubicin was used as the standard. […] Moreover, the therapeutic index (TI) was also calculated (according to Equation (1)), which is considered a measure of the selectivity and safety of the synthesized compounds. (1) TI=IC50 for the normal WI38 cells/IC50 for the cancer cells […]
(§3) 1.1. The biological assays
(§4) 1.1.1. The anticancer activity
(§5) The breast adenocarcinoma (MCF-7), Hepatocellular carcinoma (HEPG-2), and nor-mal fibroblast (WI-38) cells were obtained from ATCC via Holding company for biological products and vaccines (VACSERA), Cairo, Egypt.
(§6) DMSO, and fetal bovine serum was obtained from Sigma Aldrich. Dulbecco’s modified Eagle’s medium was used as the culture medium for the cells, and the cytotoxicity was evaluated using the reported MTT assay. Doxorubicin was used as the positive reference, and the IC50 values were obtained from the corresponding dose-response curve.
(§7) This colorimetric assay is based on converting the yellow tetrazolium bromide (MTT) to a purple formazan derivative by mitochondrial succinate dehydrogenase in viable cells. […]
(§8) added were 100 units/ml penicillin and 100µg/ml streptomycin at 37 C in a 5% Co2 incu-bator. The cell lines were seeded in a 96-well plate at a density of 1.0x10^4 cells/well. at 37 C for 48 h under 5% Co2. After incubation, the cells were treated with different concentra-tions of compounds and incubated for 24 h. After 24 h of drug treatment, 20 µl of MTT solution at 5mg/ml was added and incubated for 4 h. Finally, dimethyl sulfoxide (DMSO) in the volume of 100 µl is added to each well to dissolve the purple formazan formed. The colorimetric assay is measured and recorded at an absorbance of 570 nm using a plate […]
(§9) The percentage of the relative cell viability was calculated as (A570 of treated samples/A570 of the untreated sample) X 100. […]

HepG2 cells = assay: cells; assay type: cell-based, human; conditions: for IC50: Homo sapiens; for HepG2 TI (IC50 WI-38 / IC50 HepG2): therapeutic index, ratio of WI-38 IC50 to HepG2 IC50
Method: as §1
Recently, OSe compounds gained much attention as possible drug candidates due to their various pharmacological properties. Our group has reported several OSe candidates with potential anticancer, antimicrobial, and antioxidant activities. Therefore, the anticancer attributes of the newly prepared OSe compounds were estimated using the MTT assay against MCF-7 and HepG2 and compared with their respective cytotoxicity in WI-38 primary cells. The anthracycline drug doxorubicin was used as the standard. The minimal inhibition concentration required to kill 50% of the cells (IC50) was calculated from dose-response curves presented in Table 1. Moreover, the therapeutic index (TI) was also calculated (according to Equation (1)), which is considered a measure of the selectivity and safety of the synthesized compounds. (1) TI=IC50 for the normal WI38 cells/IC50 for the cancer cells […]
as §3, §4
The breast adenocarcinoma (MCF-7), Hepatocellular carcinoma (HEPG-2), and nor-mal fibroblast (WI-38) cells were obtained from ATCC via Holding company for biological products and vaccines (VACSERA), Cairo, Egypt. The reagents RPMI-1640 medium, MTT, DMSO, and fetal bovine serum was obtained from Sigma Aldrich. Dulbecco’s modified Eagle’s medium was used as the culture medium for the cells, and the cytotoxicity was evaluated using the reported MTT assay. Doxorubicin was used as the positive reference, and the IC50 values were obtained from the corresponding dose-response curve.
This colorimetric assay is based on converting the yellow tetrazolium bromide (MTT) to a purple formazan derivative by mitochondrial succinate dehydrogenase in viable cells.
Cell lines were cultured in RPMI-1640 medium with 10% fetal bovine serum. Antibiotics added were 100 units/ml penicillin and 100µg/ml streptomycin at 37 C in a 5% Co2 incu-bator. The cell lines were seeded in a 96-well plate at a density of 1.0x10^4 cells/well. at 37 C for 48 h under 5% Co2. After incubation, the cells were treated with different concentra-tions of compounds and incubated for 24 h. After 24 h of drug treatment, 20 µl of MTT solution at 5mg/ml was added and incubated for 4 h. Finally, dimethyl sulfoxide (DMSO) in the volume of 100 µl is added to each well to dissolve the purple formazan formed. The colorimetric assay is measured and recorded at an absorbance of 570 nm using a plate reader (EXL 800, USA). The percentage of the relative cell viability was calculated as (A570 of treated samples/A570 of the untreated sample) X 100. […]
(§10) Inhibition%= (Ablank-Asample)/(Ablank)*100. (1)

WI-38 cells = assay: cells; assay type: cell-based, human; conditions: Homo sapiens
Method: as §1, §2, §3, §4, §5, §6, §7, §8, §9

Escherichia coli = assay: Agar diffusion assay, E. coli; assay type: cell-based; set-up: E. coli A% (activity index): concentration or dose not given beside the values; conditions: for zone of inhibition at 20 µM: Escherichia coli, read-out: E. coli IZD (mm); for E. coli A% (activity index): zone of test compound / zone of standard (ampicillin) x 100
Staphylococcus aureus = assay: Agar diffusion assay, S. aureus; assay type: cell-based; set-up: S. aureus A% (activity index): concentration or dose not given beside the values; conditions: for zone of inhibition at 20 µM: Staphylococcus aureus, read-out: S. aureus IZD (mm); for S. aureus A% (activity index): zone of test compound / zone of standard (ampicillin) x 100
Method: (§11) The antimicrobial activities of the OSe compounds were evaluated against C. albicans yeast, as well as E. coli and S. bacteria, employing the agar well diffusion assay. Furthermore, the MICs (in µM) were determined by the microdilution method according to the reported protocol. More details are in the Supporting Information.
(§12) Compounds were evaluated for their antimicrobial activity against the Gram-negative bacteria Escherichia coli (E. coli) and the Gram-positive bacteria Staphylococcus aureus (S. aureus), as well as the Candida albicans (C. albicans) fungal strain, using the agar diffusion assay. Ampicillin and clotrimazole were used as standards. Indeed, the antimicrobial properties of the OSe compounds were also obtained from the activity index percentage (A%) according to Equation (2). (2) A%=Zone of inhibition by test compound diametre/Zone of inhibition by standard diametre×100 . […]
(§13) 1.1.1. The antimicrobial activity
The antimicrobial activities of the OSe compounds were evaluated against C. albicans yeast as well as E. coli gram-negative and S. aureus gram-positive bacteria employing the agar well diffusion assay. Briefly, a concentration of 1 mM was prepared for each compound by dissolving in DMSO. Paper discs of standard size […] were steri-lized in an autoclave and soaked in 20 µL of the test compounds, and placed in the Petri dishes, which in turn contain a nutrient media (agar 20 g, peptone 5 g, and beef extract 3 g) seeded with the dedicated strain. Incubation lasted for 24 h at 36
(§14) Furthermore, the MICs (in µM) were determined by the microdilution method according to the reported protocol. […]
as §10

Candida albicans = assay: microbe, parasite or virus in culture; assay type: cell-based; conditions: for zone of inhibition at 20 µM: Candida albicans, inhibition zone diameter, six-mm disks soaked with 20 μM of compound, read-out: C. albicans IZD (mm); for C. albicans A% (activity index): zone of test compound / zone of standard (clotrimazole) x 100
Method: as §11, §12, §13
The antimicrobial activities of the OSe compounds were evaluated against C. albicans yeast as well as E. coli gram-negative and S. aureus gram-positive bacteria employing the agar well diffusion assay. […]
compound by dissolving in DMSO. […]
Petri dishes, which in turn contain a nutrient media (agar 20 g, peptone 5 g, and beef extract 3 g) seeded with the dedicated strain. Incubation lasted for 24 h at 36
as §14, §10

[1] = MTT, 24 h incubation, HepG2 cells, read-out: HepG2 IC50
[2] = MCF7, MTT, 24 h incubation, MCF-7 cells, read-out: MCF7 IC50
[3] = MTT, 24 h incubation, normal WI-38 cells, read-out: WI38 IC50
[4] = inhibition zone diameter, six-mm disks soaked with 20 μM of compound

SMILES	MCF7 TI (IC50 WI-38 / IC50 MCF-7) (MCF-7 cells)	IC50 (HepG2 cells; [1])	HepG2 TI (IC50 WI-38 / IC50 HepG2) (HepG2 cells)	IC50 (MCF-7 cells; [2])	IC50 (WI-38 cells; [3])	zone of inhibition at 20 µM (Escherichia coli; [4])	E. coli A% (activity index) (Escherichia coli)	zone of inhibition at 20 µM (Staphylococcus aureus; [4])	zone of inhibition at 20 µM (Candida albicans)	C. albicans A% (activity index) (Candida albicans)	melting point	S. aureus A% (activity index) (Staphylococcus aureus)	IC50 (MCF-7 cells; MCF7, 24 h, read-out: MCF7 IC50 (µM))	IC50 (WI-38 cells; WI-38, 24 h, read-out: WI38 IC50 (µM))	IC50 (HepG2 cells; HepG2, 24 h, read-out: HepG2 IC50 (µM))	zone of inhibition at 20 µM (Escherichia coli)	zone of inhibition at 20 µM (Staphylococcus aureus)
COc1cccc2c1C(=O)c1c(O)c3c(c(O)c1C2=O)C[C@@](O)(C(=O)CO)C[C@@H]3O[C@H]1C[C@H](N)[C@H](O)[C@H](C)O1 [Doxorubicin, doxorubicin, reference compound]	1.6	4.5 ± 0.2 µM	1.5														
CC(=O)Nc1ccc([Se]CC(=O)Nc2ccccc2)cc1 [Compound 18, 2-((4-acetamidophenyl)selanyl)-N-phenylacetamide]	2	47.6 ± 2.8 µM	1.8	43.5 ± 2.6 µM	85.1 ± 4.7 µM	6 mm	26%	8 mm	11 mm	46%	161 to 162 °C						
CC1=NN(c2ccccc2)C(=O)C1=NNc1ccc([Se]CC(=O)Nc2ccccc2)cc1 [Compound 8, 2-((4-(2-(3-methyl-5-oxo-1-phenyl-1H-pyrazol-4(5H)-ylidene)hydrazinyl)phenyl)selanyl)-N-phenylacetamide]		> 100 µM		> 100 µM	> 100 µM			4 mm			197 to 199 °C	19%					
N#CC(C#N)=NNc1ccc([Se]CC(=O)Nc2ccccc2)cc1 [Compound 7]							13%				177 to 179 °C	29%	> 100 µM	> 100 µM	> 100 µM	3 mm	6 mm
O=C(O)C=CC(=O)Nc1ccc([Se]CC(=O)Nc2ccccc2)cc1 [Compound 10, 4-oxo-4-((4-((2-oxo-2-(phenylamino)ethyl)selanyl)phenyl)amino)but-2-enoic acid]	1.3	> 100 µM		34.8 ± 2.5 µM	46 ± 2.9 µM	9 mm	39%	11 mm	8 mm	33%		52%					
CC1(C)S[C@@H]2[C@H](NC(=O)[C@H](N)c3ccccc3)C(=O)N2[C@H]1C(=O)O [Ampicillin, ampicillin, reference compound]						23 mm	100%	21 mm				100%					
